# Data taken from ChEMBL document CHEMBL1148316, “Discovery of 5-(4-chlorophenyl)-1-(2,4-dichlorophenyl)-3-hexyl-1h-1,2,4-triazole, a novel in vivo cannabinoid antagonist containing a 1,2,4-triazole motif” (J Med Chem, 2004).
# Active and inactive are the calls of the source. No cut-off for these calls is given here.
# Experiments:
# Assay type in all cases: functional
# Cavia porcellus = species: Cavia porcellus; test: Effect on electrically evoked contractions in […] plexus longitudinal muscles of guinea pig at 10E-8 to 2.4E-6 M; No effect; settings: Muscle tissue
# Mus musculus = species: Mus musculus; test: Effect on electrically evoked contractions in mouse vas deferens at 10E-8 to 10E-6 M concentration; No effect
# [1] = Effect on cannabinoid tetrad (nociception, temperature, spontaneous motility and catalepsy) of behavioral test; no significant effect
# [2] = Effect on cannabinoid tetrad (nociception, temperature, spontaneous motility and catalepsy) of behavioral test; induce hypothermia
# [3] = Effect on cannabinoid tetrad (nociception, temperature, spontaneous motility and catalepsy) of behavioral test; induce catalepsy
# [4] = Effect on cannabinoid tetrad (nociception, temperature, spontaneous motility and catalepsy) of behavioral test; inhibit spontaneous motility
# [5] = Effect on cannabinoid tetrad (nociception, temperature, spontaneous motility and catalepsy) of behavioral test; induce antinociception
SMILES,Activity (Cavia porcellus),Activity (Mus musculus),further results
CCc1nc(-c2ccc(Cl)cc2)n(-c2ccccc2)n1,inactive,inactive,–
CCCCCCc1nc(-c2ccc(Cl)cc2)n(-c2ccc(Cl)cc2Cl)n1,inactive,inactive,Activity [1]: inactive
Cc1c(C(=O)c2cccc3ccccc23)c2cccc3c2n1[C@H](CN1CCOCC1)CO3,–,–,Activity [2]: Active; Activity [3]: Active; Activity [4]: Active; Activity [5]: Active
CCCCCCCc1nc(-c2ccccc2)n(-c2ccccc2)n1,inactive,inactive,–
CCCCCCc1nc(-c2ccc(Cl)cc2)n(-c2ccc(Cl)cc2)n1,inactive,inactive,–
CCCCCCc1nc(-c2ccc(Cl)cc2Cl)n(-c2ccc(Cl)cc2Cl)n1,inactive,inactive,–
CCc1nc(-c2ccc(Cl)cc2)n(-c2ccc(Cl)cc2)n1,inactive,inactive,–
